# Reference: paper PMC7488365 (Acta Pharmaceutica Sinica. B, 2019)
# How the values were obtained:
# MGC-803 cells [1] = assay: Colony formation, MGC-803; format: cell-based, human; details: MGC-803, 0.75, 1.5 and 3.0 μmol/L, 8 days
# HGC-27 cells [2] = assay: MTT cell viability assay, HGC-27; details: Homo sapiens, HGC-27, 72 h, read-out: IC50 cell viability HGC-27
# GES-1 cells = assay: cells; details: Homo sapiens, GES1, 72 h, read-out: IC50 cell viability GES-1
# USP28 [3] = target: T1, USP28 (Homo sapiens, UniProt Q96RU2); assay: biochemical; format: biochemical; details: read-out: Inhibition rate at 12.5 μmol/L (%)
# T1 sequence (Q96RU2 1-700): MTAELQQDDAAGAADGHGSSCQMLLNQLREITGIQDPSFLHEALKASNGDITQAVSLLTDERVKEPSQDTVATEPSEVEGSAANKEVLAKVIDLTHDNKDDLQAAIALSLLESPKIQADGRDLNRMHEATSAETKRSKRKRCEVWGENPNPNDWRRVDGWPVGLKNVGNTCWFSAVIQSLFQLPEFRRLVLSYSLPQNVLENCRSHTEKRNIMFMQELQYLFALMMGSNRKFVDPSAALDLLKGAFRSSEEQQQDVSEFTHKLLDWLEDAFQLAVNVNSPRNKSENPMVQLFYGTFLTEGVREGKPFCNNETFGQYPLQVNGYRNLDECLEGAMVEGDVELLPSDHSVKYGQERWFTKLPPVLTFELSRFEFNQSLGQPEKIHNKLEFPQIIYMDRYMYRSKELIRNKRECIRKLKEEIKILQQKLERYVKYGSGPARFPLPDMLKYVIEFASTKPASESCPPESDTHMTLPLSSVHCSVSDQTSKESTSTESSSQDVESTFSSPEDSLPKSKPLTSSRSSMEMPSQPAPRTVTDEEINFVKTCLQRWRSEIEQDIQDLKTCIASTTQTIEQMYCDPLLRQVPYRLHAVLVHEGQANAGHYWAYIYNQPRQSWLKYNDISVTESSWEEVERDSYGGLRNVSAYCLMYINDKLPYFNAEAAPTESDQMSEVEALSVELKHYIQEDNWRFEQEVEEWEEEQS
# MGC-803 cells [4] = assay: Wound healing assay, MGC-803; format: cell-based, human; details: MGC-803, 48 h
# HGC-27 cells [5] = assay: EdU incorporation assay; format: cell-based, human
# USP7 = USP7 (Homo sapiens, UniProt Q93009); assay: Enzymatic inhibitory activity against USP7; format: biochemical
# HGC-27 cells [6] = assay: Cell cycle assay; format: cell-based, human; details: HGC-27, 24 h
# HGC-27 cells [7] = assay: Colony formation, HGC-27; format: cell-based, human; details: HGC-27, 0.75, 1.5 and 3.0 μmol/L, 8 days
# [8] = system: USP28, LSD1 and total c-Myc in HGC-27 cells; assay: Western blotting of USP28, LSD1 and total c-Myc; format: cell-based, human; details: HGC-27, 3 h, Western blotting
# MGC-803 cells [9] = assay: cells; details: Homo sapiens, MGC-803, 72 h, read-out: IC50 cell viability MGC-803
# LSD1 = LSD1 (Homo sapiens, UniProt O60341); assay: Enzymatic inhibitory activity against LSD1; format: biochemical
# USP28 in HGC-27 cells = target: T2, USP28 in HGC-27 cells (Homo sapiens, UniProt Q96RU2); assay: Cellular thermal shift target engagement assay, HGC-27; format: cell-based; details: HGC-27, 0.75 μmol/L, 3 h, 60 °C
# T2 sequence (Q96RU2 1-1077): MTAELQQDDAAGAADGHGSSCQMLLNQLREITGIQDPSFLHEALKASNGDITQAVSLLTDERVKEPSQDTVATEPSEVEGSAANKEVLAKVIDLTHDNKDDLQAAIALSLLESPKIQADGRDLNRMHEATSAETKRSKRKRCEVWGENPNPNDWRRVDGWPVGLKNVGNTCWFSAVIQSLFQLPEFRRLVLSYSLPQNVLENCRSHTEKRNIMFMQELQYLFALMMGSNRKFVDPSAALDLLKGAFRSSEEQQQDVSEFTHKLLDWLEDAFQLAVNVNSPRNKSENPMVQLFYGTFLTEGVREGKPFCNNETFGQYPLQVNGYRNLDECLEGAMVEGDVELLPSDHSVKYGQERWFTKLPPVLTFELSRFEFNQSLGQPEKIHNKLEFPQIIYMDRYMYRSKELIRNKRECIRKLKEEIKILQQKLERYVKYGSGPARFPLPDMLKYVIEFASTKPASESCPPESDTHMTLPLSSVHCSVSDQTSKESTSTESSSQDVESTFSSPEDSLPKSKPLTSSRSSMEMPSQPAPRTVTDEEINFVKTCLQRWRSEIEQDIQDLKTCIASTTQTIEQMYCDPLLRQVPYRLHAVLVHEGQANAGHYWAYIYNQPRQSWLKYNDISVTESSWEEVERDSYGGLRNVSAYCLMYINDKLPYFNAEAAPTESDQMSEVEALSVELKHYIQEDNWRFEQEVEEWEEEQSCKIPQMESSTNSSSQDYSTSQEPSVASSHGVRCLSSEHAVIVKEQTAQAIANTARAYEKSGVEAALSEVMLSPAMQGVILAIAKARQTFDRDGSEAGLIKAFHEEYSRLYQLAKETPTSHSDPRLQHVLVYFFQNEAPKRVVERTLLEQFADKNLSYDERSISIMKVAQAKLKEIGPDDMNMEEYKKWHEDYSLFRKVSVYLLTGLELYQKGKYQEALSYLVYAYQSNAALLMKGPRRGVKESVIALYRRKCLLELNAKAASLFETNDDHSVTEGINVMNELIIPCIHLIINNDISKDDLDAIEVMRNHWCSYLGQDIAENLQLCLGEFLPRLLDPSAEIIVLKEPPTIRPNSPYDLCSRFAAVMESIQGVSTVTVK
# USP28 in MGC-803 cells = target: T3, USP28 in MGC-803 cells (Homo sapiens, UniProt Q96RU2); assay: Cellular thermal shift target engagement assay, MGC-803; format: cell-based; details: MGC-803, 0.75 μmol/L, 3 h, 60 °C
# T3 sequence (Q96RU2 1-1077): T2 sequence (Q96RU2 1-1077)
# MGC-803 cells [10] = assay: Transwell migration assay, MGC-803; format: cell-based, human; details: MGC-803, 48 h
# HGC-27 cells [11] = assay: Transwell migration assay, HGC-27; format: cell-based, human; details: HGC-27, 48 h
# HGC-27 cells [12] = assay: Wound healing assay, HGC-27; format: cell-based, human; details: HGC-27, 48 h
# HGC-27 cells [13] = assay: Annexin V-FITC/PI apoptosis analysis; format: cell-based, human
# MKN45 cells = assay: cells; details: Homo sapiens, MKN-45, 72 h, read-out: IC50 cell viability MKN45
# USP28 [14] = target: T1, USP28; assay: Bio-layer interferometry; format: binding
# Sequence of USP7 (Q93009 whole entry, species assumed): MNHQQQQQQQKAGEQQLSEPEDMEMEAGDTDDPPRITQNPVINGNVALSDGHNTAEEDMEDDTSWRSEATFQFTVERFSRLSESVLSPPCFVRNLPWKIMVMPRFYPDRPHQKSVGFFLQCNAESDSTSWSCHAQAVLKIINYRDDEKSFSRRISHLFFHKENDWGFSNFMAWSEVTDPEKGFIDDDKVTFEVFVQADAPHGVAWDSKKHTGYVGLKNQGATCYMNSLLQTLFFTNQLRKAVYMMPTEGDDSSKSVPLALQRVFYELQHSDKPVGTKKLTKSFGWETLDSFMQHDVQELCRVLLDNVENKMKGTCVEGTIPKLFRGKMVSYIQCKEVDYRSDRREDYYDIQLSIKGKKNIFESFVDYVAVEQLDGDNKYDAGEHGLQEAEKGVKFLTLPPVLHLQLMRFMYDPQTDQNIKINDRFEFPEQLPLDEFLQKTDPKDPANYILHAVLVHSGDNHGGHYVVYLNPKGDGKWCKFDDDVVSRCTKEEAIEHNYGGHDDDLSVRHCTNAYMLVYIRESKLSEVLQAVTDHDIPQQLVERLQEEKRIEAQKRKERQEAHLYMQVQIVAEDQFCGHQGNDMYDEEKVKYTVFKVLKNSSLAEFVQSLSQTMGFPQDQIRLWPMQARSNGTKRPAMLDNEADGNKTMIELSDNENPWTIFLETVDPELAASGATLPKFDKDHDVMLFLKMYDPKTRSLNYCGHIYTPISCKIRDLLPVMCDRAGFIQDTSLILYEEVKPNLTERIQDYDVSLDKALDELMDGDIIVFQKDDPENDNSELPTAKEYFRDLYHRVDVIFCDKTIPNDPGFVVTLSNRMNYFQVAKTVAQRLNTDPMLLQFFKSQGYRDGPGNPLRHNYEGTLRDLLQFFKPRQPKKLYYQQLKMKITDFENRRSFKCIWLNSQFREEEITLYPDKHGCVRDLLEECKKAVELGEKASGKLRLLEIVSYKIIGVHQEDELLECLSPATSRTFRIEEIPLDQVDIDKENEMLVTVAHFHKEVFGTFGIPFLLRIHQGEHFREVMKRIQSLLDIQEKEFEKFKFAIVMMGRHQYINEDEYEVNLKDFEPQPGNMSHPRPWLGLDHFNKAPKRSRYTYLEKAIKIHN
structure (smiles),measurement,setting,value
"CCCSc1nc(NCCN)c2nnn(Cc3ccc(Cl)cc3)c2n1 [Compound 19, N^1-(3-(4-Chlorobenzyl)-5-(propylthio)-3H-[1,2,3]triazolo[4,5-d]pyrimidin-7-yl)ethane-1,2-diamine]",colony formation,MGC-803 cells [1],dose-dependently inhibited colony formation
same,IC50,HGC-27 cells [2],0.61 ± 0.45 µM
same,IC50,GES-1 cells,9.19 ± 1.15 µM
same,inhibition at 12.5 µM,USP28 [3],90%
same,wound healing,MGC-803 cells [4],apparently suppressed the wound healing
same,DNA proliferation (EdU),HGC-27 cells [5],suppressed DNA proliferation
same,IC50,USP7,> 100 µM
same,percentage of cells in S phase,HGC-27 cells [6]; 0.18 μmol/L,36.02%
same,percentage of cells in S phase,HGC-27 cells [6]; 0.37 μmol/L,38.58%
same,percentage of cells in S phase,HGC-27 cells [6]; 0.75 μmol/L,39.27%
same,percentage of cells in S phase,HGC-27 cells [6]; 1.5 μmol/L,42.98%
same,colony formation,HGC-27 cells [7],dose-dependently inhibited colony formation
same,USP28 expression,[8],decreased in a dose-dependent manner
same,protein levels of LSD1 and total c-Myc,[8],decreased correspondingly
same,IC50,MGC-803 cells [9],4.95 ± 0.33 µM
same,IC50,LSD1,> 100 µM
same,USP28 thermal stabilization (CTSA),USP28 in HGC-27 cells,stabilized
same,USP28 thermal stabilization (CTSA),USP28 in MGC-803 cells,stabilized
same,cell migration (Transwell),MGC-803 cells [10],apparently inhibited cell migration
same,cell migration (Transwell),HGC-27 cells [11],apparently inhibited cell migration
same,wound healing,HGC-27 cells [12],apparently suppressed the wound healing
same,"apoptotic rate (Annexin V-FITC/PI, Q2)","HGC-27 cells [13]; HGC-27, 0.18 μmol/L",6.5%
same,"apoptotic rate (Annexin V-FITC/PI, Q2)","HGC-27 cells [13]; HGC-27, 0.37 μmol/L",9.3%
same,"apoptotic rate (Annexin V-FITC/PI, Q2)","HGC-27 cells [13]; HGC-27, 0.75 μmol/L",10.5%
same,"apoptotic rate (Annexin V-FITC/PI, Q2)","HGC-27 cells [13]; HGC-27, 1.5 μmol/L",21.2%
same,IC50,MKN45 cells,1.49 ± 0.98 µM
same,Kd,USP28 [14],0.04 µM
